According to PubChem BioAssay (NCI):
“And” between values parts separate entries of the source, which are not always exact repeats. Equal entries are not always repeated.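 Cultured in 96-well plates, cells were exposed to test compound for 48 hours across five concentrations. GI50 = concentration required for 50% inhibition of growth. Definition used: TGI = concentration required for complete inhibition of growth.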

Legend:
Assay in all cases: inhibition of tumour cell growth, NCI panel, 48 h
MOLT-4 leukemia = tested on: MOLT-4 leukemia
U251 CNS = tested on: U251 CNS
CAKI-1 renal = tested on: CAKI-1 renal
A498 renal = tested on: A498 renal
ACHN renal = tested on: ACHN renal
DU-145 prostate = tested on: DU-145 prostate
NCI-H23 lung = tested on: NCI-H23 lung
NCI-H522 lung = tested on: NCI-H522 lung
OVCAR-4 ovarian = tested on: OVCAR-4 ovarian
SK-OV-3 ovarian = tested on: SK-OV-3 ovarian

Row | SMILES | TGI (MOLT-4 leukemia) | TGI (U251 CNS) | TGI (CAKI-1 renal) | TGI (A498 renal) | TGI (ACHN renal) | TGI (DU-145 prostate) | TGI (NCI-H23 lung) | TGI (NCI-H522 lung) | TGI (OVCAR-4 ovarian) | GI50 (MOLT-4 leukemia) | GI50 (U251 CNS) | TGI (SK-OV-3 ovarian) | GI50 (NCI-H23 lung) | GI50 (NCI-H522 lung) | GI50 (OVCAR-4 ovarian) | GI50 (CAKI-1 renal) | GI50 (A498 renal) | GI50 (ACHN renal) | GI50 (DU-145 prostate) | GI50 (SK-OV-3 ovarian)
1 | Cc1ccc([N+](=O)[O-])c2c(NCCCN(C)C)ccnc12 | > 100 µM | > 100 µM | > 100 µM | > 100 µM | > 100 µM | > 100 µM | > 100 µM | 55.8 µM | > 76.9 µM | – | – | – | – | – | – | – | – | – | – | –
2 | COCC(=O)OC1CCn2c1nc1c2C(=O)C(C)=C(NC(C)=O)C1=O (centres undefined) | 6.36 µM and 4.94 µM | 17.4 µM | 32.3 µM | 49.2 µM | 19.5 µM | 22.2 µM | 22.5 µM | 14.3 µM | 2.79 µM and 4.25 µM | 0.772 µM | 4.36 µM | 34.3 µM | 3.23 µM | 5.52 µM | 1.43 µM | – | – | – | – | –
3 | CNC(=O)c1cc(Oc2ccc(NC(=O)Nc3ccc(Cl)c(OC(F)(F)F)c3)c(F)c2)ccn1 | 8.64 µM | 13.7 µM | > 33.2 µM | 11.4 µM | > 33.2 µM | > 33.2 µM | 5.58 µM | 14.8 µM | > 33.2 µM | 1.19 µM | 2.32 µM | > 33.2 µM | 0.913 µM | 0.971 µM | 1.24 µM | 2.89 µM | 2.66 µM | 1.33 µM | 4.24 µM | 4.32 µM
4 | C=C1C(=O)O[C@H]2[C@H]1CC/C(COC(=O)c1cc3cc(OC)ccc3[nH]1)=C\CC[C@@]1(C)O[C@@H]21 | 5.21 µM | 2.95 µM | 3.48 µM | 3.04 µM | 2.12 µM | 2.19 µM | 2.97 µM | 2.28 µM | 3.24 µM | 1.32 µM | 1.6 µM | 17.1 µM | 1.49 µM | 0.701 µM | 1.63 µM | 1.71 µM | 1.63 µM | 0.817 µM | 1.03 µM | 4.9 µM
5 | CNC(=O)c1ccc(-c2cnc3ncc(Cc4ccc5ncccc5c4)n3n2)cc1F | > 100 µM | > 100 µM | > 100 µM | > 100 µM | > 100 µM | > 100 µM | > 100 µM | > 100 µM | > 100 µM | > 100 µM | 75.1 µM | > 100 µM | > 100 µM | 38 µM | > 100 µM | > 100 µM | > 100 µM | > 100 µM | > 100 µM | > 100 µM
6 | CS(=O)(=O)Nc1ccc(-c2ccc3c(NC(=O)C4CC4)n[nH]c3c2)cc1 | > 25 µM | > 25 µM | > 25 µM | > 25 µM | > 25 µM | > 25 µM | > 25 µM | > 25 µM | > 25 µM | > 15.7 µM | > 25 µM | > 25 µM | > 25 µM | > 25 µM | 7.2 µM | > 25 µM | > 25 µM | > 25 µM | > 23.8 µM | 13.7 µM
7 | COC(=O)c1c(O)ccc2[nH]c(C)c(C#N)c12 | > 100 µM | > 100 µM | 90.1 µM | 54.2 µM | > 100 µM | > 100 µM | > 100 µM | > 100 µM | > 100 µM | 26.7 µM | 44.8 µM | > 100 µM | 77.1 µM | 83.4 µM | > 100 µM | 30.4 µM | 20.7 µM | 20.6 µM | > 100 µM | 97.5 µM
8 | C=CC(=O)N1CCN(c2ncnc3c(F)c(-c4c(O)cccc4F)c(Cl)cc23)CC1 | 56.9 µM | 46.8 µM | 25.8 µM | 19.1 µM | 17.7 µM | 23.6 µM | 15.9 µM | 35.1 µM | 43.4 µM | 7.04 µM | 13.2 µM | – | 0.43 µM | 15.6 µM | 14.9 µM | 12.6 µM | 5.45 µM | 4.84 µM | 10.6 µM | –
9 | CC(=O)[CH-]C(C)=O.CC(=O)[CH-]C(C)=O.N=CC=N.[Sn+2] | 7.47 µM | 17.1 µM | 7.23 µM | 22.4 µM | 9.77 µM | 11.2 µM | 10.9 µM | 2.13 µM | 10.5 µM | 2.03 µM | 5.16 µM | 21.7 µM | 3.23 µM | 0.911 µM | 2.62 µM | 2.54 µM | 9.97 µM | 3.2 µM | 2.77 µM | 8.74 µM
10 | Cn1c(N)nc2c(nc(OCc3ccccc3)n2C2OC(CO)C(O)C2O)c1=O (centres undefined) | > 100 µM | > 100 µM | > 100 µM | > 100 µM | > 100 µM | > 100 µM | – | > 100 µM | > 100 µM | – | – | > 100 µM | – | – | – | – | – | – | – | –
11 | COc1cc(/C=C2\CC3C4CC=C5CC(N6CCCC6)CC[C@]5(C)C4CC[C@]3(C)C2OC(C)=O)ccc1OCCN1CCCC1 (some centres undefined) | 4.48 µM | 3.73 µM | 3.93 µM | 3.26 µM | 3.22 µM | > 100 µM | 27.6 µM | 3.25 µM | 5.74 µM | 2.18 µM | 1.81 µM | 8.92 µM | 14.2 µM | 1.69 µM | 2.41 µM | 1.55 µM | 1.52 µM | 1.73 µM | 3.52 µM | 3.28 µM
12 | CC1=C(C)C(=O)O[C@@H]([C@](C)(O)[C@]2(O)CC[C@@]3(O)[C@@H]4C[C@H]5O[C@]56CC=CC(=O)[C@]6(C)[C@H]4CC[C@]23C)C1 | 35.2 µM | 2.23 µM | 2.11 µM | 0.784 µM | 1.45 µM | 10.9 µM | 2.93 µM | 0.534 µM | 15.8 µM | 0.0786 µM | 0.483 µM | 18.8 µM | 0.254 µM | 0.1 µM | 0.121 µM | 0.18 µM | 0.218 µM | 0.29 µM | 0.519 µM | 0.909 µM
13 | CC(C)(C)c1nc2c(o1)C(=Nc1ccc(F)cc1)c1ccccc1C2=O | > 100 µM | 19.7 µM | > 100 µM | 50.9 µM | 32.1 µM | 29.4 µM | 8.98 µM | 20.5 µM | > 100 µM | – | – | 45.9 µM | – | – | – | – | – | – | – | –
14 | CCn1c(-c2nonc2N)nc2ccc(F)cc21 | > 25 µM | > 25 µM | > 25 µM | > 25 µM | > 25 µM | > 25 µM | > 25 µM | > 25 µM | > 25 µM | > 25 µM | > 25 µM | > 25 µM | > 25 µM | > 25 µM | > 25 µM | > 25 µM | 13.6 µM | > 25 µM | > 25 µM | > 25 µM
15 | Oc1c(Br)cc(CN(Cc2cc(Br)c(O)c(Br)c2)C2CCCCC2)cc1Br | > 100 µM | > 100 µM | > 100 µM | > 100 µM | > 100 µM | > 100 µM | > 100 µM | > 100 µM | > 100 µM | – | – | > 100 µM | – | – | – | – | – | – | – | –
16 | C=C1CC(COc2cc(Cl)nc(N)n2)C1 | – | – | 89.3 µM | 96.8 µM | 74.1 µM | – | – | – | – | 40.2 µM | 13.5 µM | – | 38.6 µM | 27.6 µM | 67.8 µM | 22.8 µM | 28.4 µM | 14.5 µM | 47.7 µM | 69.7 µM
17 | CCCCCC(=O)Oc1ccc(/C(=C(\C)c2ccc(OC)cc2)c2ccc(OCCN3CCCCC3)cc2)cc1 | 18.8 µM | 17.6 µM | – | 26.5 µM | 22.6 µM | 26.6 µM | 23.8 µM | 30.5 µM | 18.5 µM | 3.54 µM | 5.13 µM | 22.7 µM | 10.1 µM | 14.4 µM | 4.95 µM | – | 13.5 µM | 10.7 µM | 13.5 µM | 10.6 µM
18 | Cc1c(C(=O)NN)nnn1-c1ccnc2c(C(F)(F)F)cccc12 | > 100 µM | – | > 100 µM | > 100 µM | > 100 µM | > 100 µM | > 100 µM | > 100 µM | 89.4 µM | > 100 µM | – | > 100 µM | > 100 µM | > 100 µM | 12 µM | > 100 µM | > 100 µM | > 100 µM | > 100 µM | > 100 µM
19 | Nc1ccc(SC23CC4CC(CC(C4)C2)C3)cc1 | – | > 100 µM | > 100 µM | > 100 µM | > 100 µM | > 100 µM | > 100 µM | > 100 µM | – | – | – | > 100 µM | – | – | – | – | – | – | – | –
20 | Cc1ccc(C(=O)CC(Sc2cccc(Cl)c2Cl)c2ccc(Cl)cc2)cc1C (centres undefined) | > 100 µM | 25.8 µM | 45.8 µM | 46.8 µM | – | 34.9 µM | 32.6 µM | 61.9 µM | > 100 µM | 33 µM | 11.5 µM | 59.7 µM | 17.4 µM | 26.2 µM | 34.5 µM | 21.6 µM | 19.2 µM | – | 16.1 µM | 23.3 µM
21 | C=C(C)[C@@H]1CC[C@@]2(C(=O)O)CC[C@]3(C)C(CCC4[C@@]5(C)CCC(OS(=O)(=O)c6ccccc6)C(C)(C)C5CC[C@]43C)C12 (some centres undefined) | – | 15.7 µM | 9.89 µM | 20.6 µM | 20.6 µM | 20.8 µM | 15.5 µM | 13.2 µM | 28.5 µM | – | 3.62 µM | 44.4 µM | 3.28 µM | 2.36 µM | 4.49 µM | 2.36 µM | 4.68 µM | 4.42 µM | 6.5 µM | 14 µM
